Assays:
[1] = test system: adult patients with MDD assessed to be at imminent risk for suicide; assay: CGI-SS-R (SIBAT), Study 1 (Example 4); type: in vivo, human; details: 24 hours post first dose; for CGI-SS-R change, Hodges-Lehmann Est. of Treatment Diff. (95% CI): Esk 84 mg + SOC vs placebo + SOC
Text: The SIBAT is a suicide assessment tool that captures suicidal ideation and behavior(s) as reported by patients and reviewed by clinicians permitting efficient collection and documentation of clinical impression of severity of suicidality and imminent and long-term suicide risk and treatment plans.
The CGI-SS-R rating is scored on a 7-point scale from 0 (normal, not at all suicidal) to 6 (among the most extremely suicidal patients) and will be based on the totality of information available to the clinician, including information from the SIBAT. The CGI-SS-R summarizes the clinician's overall impression of severity of suicidality and will be used to assess the key secondary endpoint in this study. This rating operates like numerous other CGI-severity scales that have been used in other psychiatric studies. These instruments have shown clinical validity and sensitivity to change.
Change in CGI-SS-R from baseline to 24 hours post first dose (Day 2). The CGI-SS-R, derived from the Suicidal Ideation and Behavior Assessment Tool (SIBAT) rating is scored on a 7-point scale from 0 (normal, not at all suicidal) to 6 (among the most extremely suicidal patients).

[2] = test system: adult patients with MDD assessed to be at imminent risk for suicide; assay: Adverse events (TEAEs, SAEs), Study 2 (Example 5); type: in vivo, human
Description: The primary objective is to compare the efficacy of ESK+SOC to that of PBO+SOC in reducing the symptoms of MDD, including suicidal ideation, as measured by the change from baseline on the MADRS total score at 24 hours post-first dose.

[3] = esketamine 84 mg+SOC, double-blind phase
[4] = esketamine 84 mg+SOC, safety set

Compound: CN[C@]1(c2ccccc2Cl)CCCCC1=O [esketamine, (S)-2-(2-chlorophenyl)-2-(methylamino)cyclohexanone]
- CGI-SS-R change, Hodges-Lehmann Est. of Treatment Diff. (95% CI) [1]: 0.0 (−1.00; 0.00)
- CGI-SS-R change, Hodges-Lehmann Est. of Treatment Diff. (95% CI) ([1]; listed as Esk): 0.0
- CGI-SS-R score, Day 2 (DB) LOCF, median ([1]; Esk 84 mg + SOC): 2.0
- CGI-SS-R score, change from baseline to Day 2 (LOCF), median (range) ([1]; Esk 84 mg + SOC): −1.0 (−6; 2)
- CGI-SS-R score, change from baseline to Day 2 (LOCF), median (range) ([1]; Esk 84 mg + SOC, listed as Esk): −1.0
- Deaths during the study [2]: no deaths
- Psychiatric SAEs related to suicidal ideation, suicide attempt, or worsening of depression, participants ([2]; ESK+SOC, 9-week follow-up phase): 9
- SAE depersonalization/derealization disorder, participants ([2]; ESK+SOC, double-blind phase): 1
- SAE suicidal ideation, participants ([2]; ESK+SOC, double-blind phase): 1
- SAEs: suicide attempts, number ([2]; ESK+SOC, double-blind phase): 3
- SAE acute stress disorder, participants ([2]; ESK+SOC, follow-up phase): 1
- SAE depression-related event, participants ([2]; ESK+SOC, follow-up phase): 1
- SAE hemothorax, participants ([2]; ESK+SOC, follow-up phase): 1
- SAEs: suicidal ideation-related events, number ([2]; ESK+SOC, follow-up phase): 3
- SAEs: suicide attempts, number ([2]; ESK+SOC, follow-up phase): 4
- Events in ESK+SOC participants considered related to study medication, number ([2]; ESK+SOC, kind of event not given): 17
- Psychiatric SAEs related to suicidal ideation, suicide attempt, or worsening of depression, frequency ([2]; double-blind phase): < 5%
- Subjects with at least one TEAE, % [2, 3]: 91.2%
- Subjects with serious TEAEs, % [2, 3]: 4.4%
- TEAE Dissociation, subjects % [2, 3]: 38.6%
- TEAE Dizziness, subjects % [2, 3]: 41.2%
- TEAE Nausea, subjects % [2, 3]: 33.3%
- TEAE dysgeusia, subjects % [2, 3]: 25.4%
- TEAE headache, subjects % [2, 3]: 21.9%
- TEAE paraesthesia, subjects % [2, 3]: 20.2%
- TEAE somnolence, subjects % [2, 3]: 22.8%
- Subjects with serious AEs, % ([2]; esketamine 84 mg+SOC, follow-up phase): 10.1%
- Study medication permanently stopped due to an adverse event, subjects % [2, 4]: 7.9%
- Study medication permanently stopped due to an adverse event, subjects n [2, 4]: 9
- Overall safety and tolerability (in words) ([2]; intranasal ESK+SOC): safe and tolerated

From US20220304950A1, “[…] THE TREATMENT OF PATIENTS WITH MAJOR DEPRESSIVE DISORDER, INCLUDING SUICIDALITY” (JANSSEN PHARMACEUTICALS, INC., priority 2019, published 2022)
